Measurements reported in PubChem BioAssay AID248 (DTP/NCI, 2004).
Values joined by “and” are separate entries in the source; they are usually repeats but may differ in a detail not shown here. Equal values may be shown once. Inconclusive results and toxic doses are left out. Peptide text beside a SMILES is read from it. * marks the point of attachment. Cbz = O=C(OCc1ccccc1)*; OBn = c1ccc(CO*)cc1; Bn = c1ccc(C*)cc1

System: L1210 leukemia ip in BDF1 mice, survival T/C
Assay: NCI In Vivo Anticancer Drug Screen. Data for tumor model L1210 Leukemia (intraperitoneal) in B6D2F1 (BDF1) mice
Conditions: endpoint: mean survival time, higher = longer survival
Summary of the method: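 Transplanted-tumor mice were given test agent; controls received vehicle only. Survival readings from the two groups were divided (treated over control).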

[1] = dose: 100.0 mg/kg/injection, schedule: Q01DX001 (ip), vehicle: saline
[2] = dose: 200.0 mg/kg/injection, schedule: Q01DX001 (ip), vehicle: saline
[3] = dose: 400.0 mg/kg/injection, schedule: Q01DX001 (ip), vehicle: saline
[4] = dose: 100.0 mg/kg/injection, schedule: Q01DX009 (ip), vehicle: saline with Tween-80
[5] = dose: 100.0 mg/kg/injection, schedule: Q04DX003 (ip), vehicle: saline with Tween-80
[6] = dose: 200.0 mg/kg/injection, schedule: Q01DX009 (ip), vehicle: saline with Tween-80
[7] = dose: 200.0 mg/kg/injection, schedule: Q04DX003 (ip), vehicle: saline with Tween-80
[8] = dose: 400.0 mg/kg/injection, schedule: Q01DX009 (ip), vehicle: saline with Tween-80
[9] = dose: 400.0 mg/kg/injection, schedule: Q04DX003 (ip), vehicle: saline with Tween-80
[10] = dose: 100.0 mg/kg/injection, schedule: Q01DX001 (ip), vehicle: saline with Tween-80
[11] = dose: 200.0 mg/kg/injection, schedule: Q01DX001 (ip), vehicle: saline with Tween-80
[12] = dose: 100.0 mg/kg/injection, schedule: Q04DX002 (ip), vehicle: saline with Tween-80
[13] = dose: 200.0 mg/kg/injection, schedule: Q04DX002 (ip), vehicle: saline with Tween-80
[14] = dose: 400.0 mg/kg/injection, schedule: Q04DX002 (ip), vehicle: saline with Tween-80
[15] = dose: 100.0 mg/kg/injection, schedule: Q01DX009 (ip), vehicle: Klucel (hydroxypropylcellulose) (HPC)
[16] = dose: 200.0 mg/kg/injection, schedule: Q01DX009 (ip), vehicle: Klucel (hydroxypropylcellulose) (HPC)
[17] = dose: 400.0 mg/kg/injection, schedule: Q01DX009 (ip), vehicle: Klucel (hydroxypropylcellulose) (HPC)

C/C=C/C(=O)OC was tested, and the T/C (dose: 100.0 mg/kg/injection, schedule: Q01DX009 (ip), vehicle: saline) was 101 % of control, the T/C (dose: 200.0 mg/kg/injection, schedule: Q01DX009 (ip), vehicle: saline) was 102 % of control and the T/C (dose: 400.0 mg/kg/injection, schedule: Q01DX009 (ip), vehicle: saline) was 104 % of control.

With CC(=O)OC1CCC2(C)C3CCC4(C)C(CCC45OC5(C)OC(C)=O)C3CC3OC32C1 (stereo not drawn) the T/C (dose: 50.0 mg/kg/injection, schedule: Q01DX001 (sc), vehicle: steriod suspending solution) was 111 % of control, the T/C (dose: 100.0 mg/kg/injection, schedule: Q01DX001 (sc), vehicle: steriod suspending solution) was 98 % of control and the T/C (dose: 200.0 mg/kg/injection, schedule: Q01DX001 (sc), vehicle: steriod suspending solution) was 106 % of control. The T/C (dose: 400.0 mg/kg/injection, schedule: Q01DX001 (sc), vehicle: steriod suspending solution) was 101 % of control.

In the case of CCOC(=O)C(N)CS (stereo not drawn), the T/C [1] is reported as 106 % of control, the T/C [2] is reported as 97 % of control and the T/C [3] is reported as 101 % of control.

With COc1ccccc1NC(=O)Nc1ccc(N(C)C)cc1 the T/C [4] was 91 % of control, the T/C [5] was 86 % of control and the T/C [6] was 96 % of control. For the same compound, the T/C [7] was 94 % of control, the T/C [8] was 102 % of control and the T/C [9] was 95 % of control.

Nc1nc2c(nc(Br)n2C2CC(O)C(CO)O2)c(=O)[nH]1 (stereo not drawn) was tested, and the T/C (dose: 50.0 mg/kg/injection, schedule: Q01DX001 (ip), vehicle: saline) was 102 % of control, the T/C [1] was 102 % of control and the T/C [2] was 98 % of control. The T/C [3] was 98 % of control.

CCCP(=S)(CCC)CCC was tested, and the T/C [10] was 103 % of control and the T/C [11] was 94 % of control.

In the case of C/C(=N/NC(=O)c1ccncc1)C(=O)O, the T/C (dose: 25.0 mg/kg/injection, schedule: Q04DX003 (ip), vehicle: saline with Tween-80) is reported as 92 % of control, the T/C (dose: 50.0 mg/kg/injection, schedule: Q04DX003 (ip), vehicle: saline with Tween-80) is reported as 93 % of control and the T/C [5] is reported as 101 % of control.

For O=C(O)c1ccc(-c2c3ccc(=O)cc-3oc3cc(O)ccc23)c(C(=O)O)c1, the T/C (dose: 100.0 mg/kg/injection, schedule: Q04DX003 (ip), vehicle: saline) was 97 % of control, the T/C (dose: 200.0 mg/kg/injection, schedule: Q04DX003 (ip), vehicle: saline) was 105 % of control and the T/C (dose: 400.0 mg/kg/injection, schedule: Q04DX003 (ip), vehicle: saline) was 97 % of control.

CC(C)C(CN)(CCCN1CCCCC1)c1cccc2ccccc12 (stereo not drawn) was tested, and the T/C [5] was 101 % of control.

In the case of CN(C)c1ccc(/C=N/NC(=O)c2ccc(O)cc2)c(Cl)c1, the T/C (dose: 25.0 mg/kg/injection, schedule: Q01DX009 (ip), vehicle: saline with Tween-80) is reported as 97 % of control and 103 % of control, the T/C (dose: 50.0 mg/kg/injection, schedule: Q01DX001 (ip), vehicle: saline with Tween-80) is reported as 86 % of control and the T/C (dose: 50.0 mg/kg/injection, schedule: Q01DX009 (ip), vehicle: saline with Tween-80) is reported as 102 % of control and 113 % of control. The T/C [10] was 88 % of control, the T/C [12] was 97 % of control and 98 % of control and the T/C [5] was 104 % of control. The T/C [11] was 94 % of control, the T/C [13] was 97 % of control and 91 % of control and the T/C [7] was 87 % of control. The T/C [8] was 92 % of control, the T/C [14] was 94 % of control and 90 % of control and the T/C [9] was 95 % of control.

In the case of CC1(C)OCC(C2OC(=O)C=C2OS(=O)(=O)O)O1 (stereo not drawn), the T/C (dose: 75.0 mg/kg/injection, schedule: Q01DX001 (ip), vehicle: saline) is reported as 95 % of control.

In the case of Cc1cc(Cl)cc(Cl)c1OCC(N)=O, the T/C [12] is reported as 94 % of control, the T/C [13] is reported as 94 % of control and the T/C [14] is reported as 94 % of control.

With CCC(/C=C\C(C)C1CCC2C3CC=C4CC(OS(=O)(=O)c5ccc(C)cc5)CCC4(C)C3CCC12C)C(C)C (stereo not drawn) the T/C [10] was 90 % of control, the T/C [11] was 90 % of control and the T/C (dose: 400.0 mg/kg/injection, schedule: Q01DX001 (ip), vehicle: saline with Tween-80) was 86 % of control.

With COC(=O)c1n[nH]c(C2OCC3OC(C)(C)OC32)c1I (stereo not drawn) the T/C (dose: 100.0 mg/kg/injection, schedule: Q01DX005 (ip), vehicle: saline) was 98 % of control and the T/C (dose: 200.0 mg/kg/injection, schedule: Q01DX005 (ip), vehicle: saline) was 98 % of control.

In the case of COc1ccc(CCN2C(=O)C=CC2=O)cc1OC, the T/C (dose: 5.0 mg/kg/injection, schedule: Q04DX003 (ip), vehicle: saline) is reported as 97 % of control, the T/C (dose: 10.0 mg/kg/injection, schedule: Q04DX003 (ip), vehicle: saline) is reported as 96 % of control and the T/C (dose: 20.0 mg/kg/injection, schedule: Q04DX003 (ip), vehicle: saline) is reported as 100 % of control.

In the case of Cc1cc(C(=O)Nc2ccc(NC3=NCCN3)cc2)cc(C(=O)Nc2ccc(NC3=NCCN3)cc2)c1, the T/C (dose: 3.0 mg/kg/injection, schedule: Q01DX Z (ip), vehicle: saline) is reported as 103 % of control, the T/C (dose: 6.0 mg/kg/injection, schedule: Q01DX Z (ip), vehicle: saline) is reported as 103 % of control and the T/C (dose: 12.0 mg/kg/injection, schedule: Q01DX Z (ip), vehicle: saline) is reported as 100 % of control. The T/C (dose: 15.0 mg/kg/injection, schedule: Q01DX Z (ip), vehicle: saline) was 110 % of control.

With Nc1[nH]c(=S)ncc1-c1cccc(Cl)c1 the T/C (dose: 50.0 mg/kg/injection, schedule: Q01DX001 (ip), vehicle: Klucel (hydroxypropylcellulose) (HPC)) was 110 % of control, the T/C (dose: 100.0 mg/kg/injection, schedule: Q01DX001 (ip), vehicle: Klucel (hydroxypropylcellulose) (HPC)) was 117 % of control and the T/C (dose: 200.0 mg/kg/injection, schedule: Q01DX001 (ip), vehicle: Klucel (hydroxypropylcellulose) (HPC)) was 114 % of control.

In the case of N#CC(O)C(Br)(Br)Br (stereo not drawn), the T/C (dose: 5.0 mg/kg/injection, schedule: Q01DX001 (ip), vehicle: saline) is reported as 97 % of control, the T/C (dose: 10.0 mg/kg/injection, schedule: Q01DX001 (ip), vehicle: saline) is reported as 92 % of control and the T/C (dose: 20.0 mg/kg/injection, schedule: Q01DX001 (ip), vehicle: saline) is reported as 101 % of control.

With CCCC(=O)Oc1ccc(/C=N/NC(N)=S)nc1 the T/C [4] was 119 % of control, the T/C [12] was 113 % of control and the T/C [6] was 156 % of control. For the same compound, the T/C [8] was 176 % of control and the T/C (dose: 600.0 mg/kg/injection, schedule: Q01DX009 (ip), vehicle: saline with Tween-80) was 109 % of control.

Cc1nccnc1Sc1ccc2ccccc2c1 was tested, and the T/C [15] was 95 % of control, the T/C [16] was 92 % of control and the T/C [17] was 90 % of control.

With CNc1ccc(Nc2cc(S(=O)(=O)O)c(N)c3c2C(=O)c2ccccc2C3=O)cc1 the T/C [1] was 110 % of control, the T/C [2] was 98 % of control and the T/C [3] was 93 % of control.

In the case of O=C(c1ccc(F)cc1)c1ccc([N+](=O)[O-])cc1, the T/C [5] is reported as 97 % of control, the T/C [7] is reported as 97 % of control and the T/C [9] is reported as 98 % of control.

In the case of COC(=O)N1C(c2ccccc2)CS1(=O)=O (stereo not drawn), the T/C (dose: 25.0 mg/kg/injection, schedule: Q04DX002 (ip), vehicle: Klucel (hydroxypropylcellulose) (HPC)) is reported as 106 % of control, the T/C (dose: 50.0 mg/kg/injection, schedule: Q04DX002 (ip), vehicle: Klucel (hydroxypropylcellulose) (HPC)) is reported as 113 % of control and the T/C (dose: 100.0 mg/kg/injection, schedule: Q04DX002 (ip), vehicle: Klucel (hydroxypropylcellulose) (HPC)) is reported as 97 % of control and 109 % of control.

For Cc1ccc2c(c1)Nc1ccccc1C(=O)N2, the T/C [15] was 98 % of control, the T/C [16] was 93 % of control and the T/C [17] was 91 % of control.

With CC(C)C(NC(=O)C(CSCc1ccccc1)NC(=O)OCc1ccccc1)C(=O)OCc1ccccc1 (stereo not drawn) (Cbz-Cys(Bn)-Val-OBn; configuration not given here) the T/C (dose: 100.0 mg/kg/injection, schedule: Q04DX003 (ip), vehicle: Klucel (hydroxypropylcellulose) (HPC)) was 98 % of control, the T/C (dose: 200.0 mg/kg/injection, schedule: Q04DX003 (ip), vehicle: Klucel (hydroxypropylcellulose) (HPC)) was 93 % of control and the T/C (dose: 400.0 mg/kg/injection, schedule: Q04DX003 (ip), vehicle: Klucel (hydroxypropylcellulose) (HPC)) was 96 % of control.

In the case of CC(C)NC(=O)Nc1cccc(O)c1, the T/C [5] is reported as 96 % of control, the T/C [7] is reported as 89 % of control and the T/C [9] is reported as 89 % of control.

COc1ccc(C(=O)CCCC(=O)O)cc1 was tested, and the T/C (dose: 50.0 mg/kg/injection, schedule: Q01DX001 (ip), vehicle: carboxymethylcellulose (CMC)) was 105 % of control, the T/C (dose: 100.0 mg/kg/injection, schedule: Q01DX001 (ip), vehicle: carboxymethylcellulose (CMC)) was 100 % of control and the T/C (dose: 200.0 mg/kg/injection, schedule: Q01DX001 (ip), vehicle: carboxymethylcellulose (CMC)) was 111 % of control. The T/C (dose: 400.0 mg/kg/injection, schedule: Q01DX001 (ip), vehicle: carboxymethylcellulose (CMC)) was 105 % of control.
